Measurements taken from patent US9012635B2, “Pyridone amides and analogs exhibiting anti-cancer and anti-proliferative activities” (Deciphera Pharmaceuticals, LLC, priority 2013, dated 2015).

Key:
A549 cells = assay: A549 cell migration assay (HGF-stimulated); format: cell-based; conditions: Homo sapiens, 40 ng/mL HGF, 48 h migration
Method: A549 cells (catalog # CCL-185) were obtained from the American Type Culture Collection (ATCC, Manassas, Va.). Briefly, cells were grown in DMEM supplemented with 10% characterized fetal bovine serum (Invitrogen, Carlsbad, Calif.) at 37 degrees Celsius, 5% CO2, 95% humidity. Cells were allowed to expand until reaching 70-95% confluency at which point they were subcultured or harvested for assay use.
Forty thousand cells in DMEM supplemented with 10% characterized fetal bovine serum (FBS; Invitrogen, Carlsbad, Calif.) were added per well in a 96-well black clear bottom Oris Collagen-Coated cell migration plate containing cell seeding stoppers (Platypus Technologies, Madison, Wis.). Cells were then incubated overnight at 37 degrees Celsius, 5% CO2, 95% humidity. Cell seeding stoppers were removed creating an area for cell migration in the center of each well of the plate. Media was replaced with DMEM supplemented with 0.5% FBS. […] A plate mask (Platypus Technologies, Madison, Wis.) that obscures each well except for the area for cell migration in the center of the well was attached to the bottom of the migration plate and fluorescence was detected using a fluorescent plate reader. Data was analyzed using Prism software (Graphpad, San Diego, Calif.) to calculate IC50 values.

[1] = test system: MET activity in MKN-45 xenograft tumors; assay: pMET inhibition in a MKN-45 xenograft pharmacodynamic model; format: in vivo; conditions: nude mice, single oral 10 mg/kg dose, out to 8 h post dose
Method: To examine the in vivo modulation of MET activity by compounds of formula I, MKN-45 xenograft tumors were excised at varying time points following a single oral dose. Briefly, MKN-45 cells were obtained from the Japan Health Sciences Foundation and expanded in RPMI medium which was supplemented with 20% FBS, 1% PSG (Penicillin/Streptomycin/Glutamine). The growth environment was maintained in an incubator with a 5% CO2 atmosphere at 37° C. Cells were harvested and re-suspended using 50% serum-free media and 50% Matrigel® to generate a stock concentration of 5×10^6 cells/mL.
Seven to 8 week old female Harlan nude mice (Hsd:AthymicNude-Fox1nu) were injected with 200 μL of cell suspension subcutaneously, just below the right axilla. All procedures carried out in this experiment were conducted in compliance with all the laws, regulations and guidelines of the National Institutes of Health (NIH). Treatment began when the mean tumor burden was approximately 300 mg. All mice were dosed with test compound by oral gavage. Plasma and tumor samples were collected from three mice at each timepoint 2, 4, 6, 8, 12, 18, and 24 hours after dosing. […] Plasma levels of MET inhibitors were determined by mass spectrometer analysis.

[2] = test system: MKN-45 human gastric adenocarcinoma xenograft; assay: MKN-45 xenograft study; format: in vivo; conditions: nude mice, oral gavage, after 14 days
Method: To evaluate the in vivo anti-cancer activity compounds of formula I, a MKN-45 human gastric adenocarcinoma xenograft was employed. Briefly, MKN-45 cells were obtained from the Japan Health Sciences Foundation and expanded in RPMI medium which was supplemented with 20% FBS, 1% PSG. The growth environment was maintained in an incubator with a 5% CO2 atmosphere at 37° C. Cells were harvested and re-suspended using 50% serum-free media and 50% Matrigel® to generate a stock concentration of 5×10^6 cells/mL.
Seven to 8 week old female Harlan nude mice (Hsd:AthymicNude-Fox1nu) were injected with 200 μL of cell suspension subcutaneously, just below the right axilla. All procedures carried out in this experiment were conducted in compliance with all the laws, regulations and guidelines of the National Institutes of Health (NIH). Treatment began when the mean tumor burden was approximately 150 mg. All mice were dosed with test compound by oral gavage. Body weights and tumor measurements were recorded three times weekly. Tumor burden (mg) was estimated from caliper measurements by the formula for the volume of a prolate ellipsoid assuming unit density as: Tumor burden (mg)=(L×W2)/2, where L and W were the respective orthogonal tumor length and width measurements (mm). […]

Structure (SMILES) | IC50 (A549 cells) [nM] | inhibition of cFOS mRNA levels [1] [%] | % T/C ([2]; 10 mg/kg twice daily) [% T/C] | % T/C ([2]; 30 mg/kg twice daily) [% T/C]
Cn1cc(-c2cc(Oc3cc(F)c(NC(=O)c4cccn(-c5ccc(F)cc5)c4=O)cc3F)ccn2)cn1 [Example 1, N-(2,5-difluoro-4-((2-(1-methyl-1H-pyrazol-4-yl)pyridin-4-yl)oxy)phenyl)-1-(4-fluorophenyl)-2-oxo-1,2-dihydropyridine-3-carboxamide] | 100 to 1000 |  |  | 
CCOc1ccn(-c2ccc(F)cc2)c(=O)c1C(=O)Nc1cc(F)c(Oc2ccnc(-c3cnn(C)c3)c2)cc1F [Example 2, N-(2,5-difluoro-4-(2-(1-methyl-1H-pyrazol-4-yl)pyridin-4-yloxy)phenyl)-4-ethoxy-1-(4-fluorophenyl)-2-oxo-1,2-dihydropyridine-3-carboxamide] | ≤ 100 | 80 | 19 | 12
